According to US7223888B2, “Mu opioid receptor ligands: methods of use and synthesis” (President and Fellows of Harvard College, priority 2002, dated 2007):
Where two headings read alike, the source gives them in different places.

Assays:
hMOR-1 = target: T1, hMOR-1 (Homo sapiens, UniProt P35372); experiment: Opioid receptor competitive binding assay, MOR (3H-DAMGO)
T1 construct: purchased Amersham Biosciences; host or cells: stably transfected CHO cells (membrane preparation)
Method: (§1) For selected compounds, Ki for MOR, DOR, and KOR were determined according to the following procedure: Recombinant hMOR-1 membrane preps from stably transfected CHO cells and recombinant hDOR-1 membrane preps from stably transfected HEK-293 cells were purchased from Amersham Biosciences. Guinea pig cerebellum preparations were used for KOR assays.
(§2) Each microassay from an assay plate was filtered through an individual well of a Packard GF/B 96-well filter plate (glass fiber filter) to collect the membranes. Each well was washed twice with 200 μL of ice cold wash buffer (50 mM Tris, pH 7.4). The filter plate was allowed to dry overnight, the back was sealed, and Packard Bioscience Microscint PS scintillation fluid (75 μL) was added to each well, which was then counted for ^3H for 2 minutes using a Packard Bioscience TopCount scintillation counter plate reader.
(§3) Each compound was assayed at 8 concentrations, using half-log serial dilutions. Each concentration was tested in triplicate, and the ^3H cpm were averaged.
(§4) This concentration was determined experimentally by scintillation counting an aliquot of the radioligand stock solution used in the assay.
(§5) Kd=the binding constant for the radioligand.
(§6) This triplicate experiment was repeated three times for the MOR and twice for the DOR and the KOR.

hDOR-1 = target: T2, hDOR-1 (Homo sapiens, UniProt P41143); experiment: Opioid receptor competitive binding assay, DOR; conditions: for Ki DOR/Ki MOR: Table 12, selectivity for MOR versus DOR (3H-DPDPE, hDOR-1)
T2 construct: purchased Amersham Biosciences; host or cells: stably transfected HEK-293 cells (membrane preparation)
Method: as §1, §2, §3, §4, §5, §6

KOR = target: T3, KOR (Cavia porcellus, UniProt P41144); experiment: Opioid receptor competitive binding assay, KOR (3H-U-69,593); parameters: species or system guinea pig; conditions: for Ki KOR/Ki MOR: Table 12, selectivity for MOR versus KOR
T3 construct: from tissue; host or cells: guinea pig cerebellum preparation
Method: as §1, §2, §3, §6

[1] = Ki MOR, Table 3, 3H-DAMGO, hMOR-1 stably transfected into CHO cells, errors 95% confidence interval
[2] = Ki DOR, Table 6, footnote:, hDOR-1 stably transfected into HEK-293 cells, errors two standard deviations
[3] = Ki KOR, Table 9, 3H-U-69,593, guinea pig cerebellum preps, errors two standard deviations

SMILES	Ki (hMOR-1; [1])	Ki (hDOR-1; [2])	Ki DOR/Ki MOR (hDOR-1)	Ki (KOR; [3])	Ki KOR/Ki MOR (KOR)	Ki (hMOR-1; read-out: Ki MOR)	Ki (KOR; read-out: Ki KOR)	Ki (hDOR-1; read-out: Ki DOR)
NC(=O)C(Cc1ccccc1)NC(=O)C(Cc1ccccc1)C(O)/C=C/CC(O)C(N)Cc1ccc(O)cc1 (single isomer, unassigned) [(S,R,R,R)-2, (E)-8-Amino-2-benzyl-3,7-dihydroxy-9-(4-hydroxy-phenyl)-non-4-enoic acid (1-carbamoyl-2-phenyl-ethyl)-amide]	0.067 ± 0.038 µM	1.4 ± 0.3 µM	21	1.2 ± 0.1 µM	18			
NC(=O)C(Cc1ccccc1)NC(=O)C(Cc1ccccc1)C(O)CCCC(O)C(N)Cc1ccc(O)cc1 (single isomer, unassigned) [(S,R,R,R)-6, 8-Amino-2-benzyl-3,7-dihydroxy-9-(4-hydroxy-phenyl)-nonanoic acid (1-carbamoyl-2-phenyl-ethyl)-amide]						0.12 ± 0.03 µM	1.5 ± 0.7 µM	
NC(=O)C(Cc1ccccc1)NC(=O)C(Cc1ccccc1)C(O)/C=C\CC(O)C(N)Cc1ccc(O)cc1 (single isomer, unassigned) [(S,R,R,R)-9, (Z)-8-Amino-2-benzyl-3,7-dihydroxy-9-(4-hydroxy-phenyl)-non-4-enoic acid (1-carbamoyl-2-phenyl-ethyl)-amide]	0.4 ± 0.11 µM	9.2 ± 2.1 µM	23	5.8 ± 1.8 µM	15			
NC(Cc1ccc(O)cc1)C(O)C/C=C/C(O)C(Cc1ccccc1)C(=O)NCCc1ccccc1 (single isomer, unassigned) [(S,R,R,R)-10, (E)-8-Amino-2-benzyl-3,7-dihydroxy-9-(4-hydroxy-phenyl)-non-4-enoic acid phenethyl-amide]	0.053 ± 0.006 µM	2.9 ± 0.6 µM	55	2.8 ± 0.6 µM	53			
NC(Cc1ccc(O)cc1)C(O)C/C=C/C(O)C(Cc1ccccc1)C(=O)NC(CO)Cc1ccccc1 (single isomer, unassigned) [(S,R,R,R)-11, (E)-8-Amino-2-benzyl-3,7-dihydroxy-9-(4-hydroxy-phenyl)-non-4-enoic acid (1-hydroxymethyl-2-phenyl-ethyl)-amide]	0.028 ± 0.005 µM	0.96 ± 0.1 µM	34	3.4 ± 1.3 µM	120			
C=CC(O)C(Cc1ccccc1)NC(=O)C(Cc1ccccc1)C(O)/C=C/CC(O)C(N)Cc1ccc(O)cc1 (single isomer, unassigned) [(S,R,R,R)-12, (E)-8-Amino-2-benzyl-3,7-dihydroxy-9-(4-hydroxy-phenyl)-non-4-enoic acid (1-benzyl-2-hydroxy-but-3-enyl)-amide]	0.037 ± 0.001 µM	0.57 ± 0.28 µM	15	0.97 ± 0.08 µM	26			
NC(=O)C(Cc1ccccc1)NC(=O)C(Cc1ccccc1)C(O)/C=C/CC(O)C(N)Cc1ccc(O)cc1 (single isomer, unassigned) [(S,R,S,R)-2, (E)-8-Amino-2-benzyl-3,7-dihydroxy-9-(4-hydroxy-phenyl)-non-4-enoic acid (1-carbamoyl-2-phenyl-ethyl)-amide]	0.16 ± 0.04 µM	0.85 ± 0.03 µM	5	2.9 ± 0.8 µM	18			
NC(=O)C(Cc1ccccc1)NC(=O)C(Cc1ccccc1)C(O)CCCC(O)C(N)Cc1ccc(O)cc1 (single isomer, unassigned) [(S,R,S,R)-6, 8-Amino-2-benzyl-3,7-dihydroxy-9-(4-hydroxy-phenyl)-nonanoic acid (1-carbamoyl-2-phenyl-ethyl)-amide]						0.19 ± 0.02 µM	6.6 ± 3.5 µM	4 ± 0.1 µM
NC(=O)C(Cc1ccccc1)NC(=O)C(Cc1ccccc1)C(O)/C=C\CC(O)C(N)Cc1ccc(O)cc1 (single isomer, unassigned) [(S,R,S,R)-9, (Z)-8-Amino-2-benzyl-3,7-dihydroxy-9-(4-hydroxy-phenyl)-non-4-enoic acid (1-carbamoyl-2-phenyl-ethyl)-amide]	0.26 ± 0.07 µM	10 ± 2 µM	39	1.7 ± 0.4 µM	7			
NC(=O)C(Cc1ccccc1)NC(=O)C(Cc1ccccc1)C(O)/C=C/CC(O)C(N)Cc1ccc(O)cc1 (single isomer, unassigned) [(S,S,R,R)-2, (E)-8-Amino-2-benzyl-3,7-dihydroxy-9-(4-hydroxy-phenyl)-non-4-enoic acid (1-carbamoyl-2-phenyl-ethyl)-amide]	0.025 ± 0.005 µM	1.2 ± 0.1 µM	45	1.2 ± 0.7 µM	48			
NC(=O)C(Cc1ccccc1)NC(=O)C(Cc1ccccc1)C(O)CCCC(O)C(N)Cc1ccc(O)cc1 (single isomer, unassigned) [(S,S,R,R)-6, 8-Amino-2-benzyl-3,7-dihydroxy-9-(4-hydroxy-phenyl)-nonanoic acid (1-carbamoyl-2-phenyl-ethyl)-amide]	0.095 ± 0.061 µM						0.73 ± 0.27 µM	3 ± 0.1 µM
NC(=O)C(Cc1ccccc1)NC(=O)C(Cc1ccccc1)C(O)/C=C\CC(O)C(N)Cc1ccc(O)cc1 (single isomer, unassigned) [(S,S,R,R)-9, (Z)-8-Amino-2-benzyl-3,7-dihydroxy-9-(4-hydroxy-phenyl)-non-4-enoic acid (1-carbamoyl-2-phenyl-ethyl)-amide]	0.074 ± 0.012 µM	4.3 ± 1.4 µM	58	1.6 ± 0.1 µM	22			
NC(Cc1ccc(O)cc1)C(O)C/C=C/C(O)C(Cc1ccccc1)C(=O)NCCc1ccccc1 (single isomer, unassigned) [(S,S,R,R)-10, (E)-8-Amino-2-benzyl-3,7-dihydroxy-9-(4-hydroxy-phenyl)-non-4-enoic acid phenethyl-amide]	0.029 ± 0.008 µM	1.2 ± 0.3 µM	42	3.4 ± 0.3 µM	120			
NC(Cc1ccc(O)cc1)C(O)C/C=C/C(O)C(Cc1ccccc1)C(=O)NC(CO)Cc1ccccc1 (single isomer, unassigned) [(S,S,R,R)-11, (E)-8-Amino-2-benzyl-3,7-dihydroxy-9-(4-hydroxy-phenyl)-non-4-enoic acid (1-hydroxymethyl-2-phenyl-ethyl)-amide]	0.016 ± 0.001 µM	0.62 ± 0.08 µM	39	2.9 ± 0.4 µM	180			
C=CC(O)C(Cc1ccccc1)NC(=O)C(Cc1ccccc1)C(O)/C=C/CC(O)C(N)Cc1ccc(O)cc1 (single isomer, unassigned) [(S,S,R,R)-12, (E)-8-Amino-2-benzyl-3,7-dihydroxy-9-(4-hydroxy-phenyl)-non-4-enoic acid (1-benzyl-2-hydroxy-but-3-enyl)-amide]	0.022 ± 0.004 µM	0.62 ± 0.07 µM	28	0.77 ± 0.13 µM	35			
NC(=O)C(Cc1ccccc1)NC(=O)C(Cc1ccccc1)C(O)/C=C/CC(O)C(N)Cc1ccc(O)cc1 (single isomer, unassigned) [(S,S,R,S)-2, (E)-8-Amino-2-benzyl-3,7-dihydroxy-9-(4-hydroxy-phenyl)-non-4-enoic acid (1-carbamoyl-2-phenyl-ethyl)-amide]	0.079 ± 0.023 µM	6.9 ± 1.3 µM	86	1.3 ± 0.1 µM	16			
NC(=O)C(Cc1ccccc1)NC(=O)C(Cc1ccccc1)C(O)/C=C/CC(O)C(N)Cc1ccc(O)cc1 (single isomer, unassigned) [(S,S,S,R)-2, (E)-8-Amino-2-benzyl-3,7-dihydroxy-9-(4-hydroxy-phenyl)-non-4-enoic acid (1-carbamoyl-2-phenyl-ethyl)-amide]	0.0088 ± 0.0007 µM	0.51 ± 0.01 µM	57	1.3 ± 0.5 µM	150			
NC(=O)C(Cc1ccccc1)NC(=O)C(Cc1ccccc1)C(O)CCCC(O)C(N)Cc1ccc(O)cc1 (single isomer, unassigned) [(S,S,S,R)-6, 8-Amino-2-benzyl-3,7-dihydroxy-9-(4-hydroxy-phenyl)-nonanoic acid (1-carbamoyl-2-phenyl-ethyl)-amide]	0.098 ± 0.031 µM						3.9 ± 1.7 µM	
NC(=O)C(Cc1ccccc1)NC(=O)C(Cc1ccccc1)C(O)/C=C\CC(O)C(N)Cc1ccc(O)cc1 (single isomer, unassigned) [(S,S,S,R)-9, (Z)-8-Amino-2-benzyl-3,7-dihydroxy-9-(4-hydroxy-phenyl)-non-4-enoic acid (1-carbamoyl-2-phenyl-ethyl)-amide]	0.37 ± 0.15 µM	2.2 ± 0.1 µM	6	6.1 ± 3 µM	16			
NC(Cc1ccc(O)cc1)C(O)C/C=C/C(O)C(Cc1ccccc1)C(=O)NCCc1ccccc1 (single isomer, unassigned) [(S,S,S,R)-10, (E)-8-Amino-2-benzyl-3,7-dihydroxy-9-(4-hydroxy-phenyl)-non-4-enoic acid phenethyl-amide]	0.021 ± 0.001 µM	3.6 ± 0.1 µM	170	1.8 ± 0.3 µM	86			
